From US10149839B2, “Chemical compounds” (AstraZeneca AB, priority 2016, dated 2018) come the findings set out here.

Values after ≈ are worked out from the molar mass of the structure shown.

Series [1] has as its target Estrogen Receptor (ERα) in MCF-7 cells (Homo sapiens (Human), UniProt P03372). Description: MCF-7 ER down-regulation assay (immuno-fluorescence). It is filed as cell-based. Conditions: for IC50: 18-22 hours incubation; for % downregulation: shown in brackets where not >90%.
Series [2] in a line: Thermodynamic solubility (shake flask). It is filed as physicochemical. Conditions: aqueous phosphate buffer pH 7.4, 24 hours.
Series [3] in a line: Human plasma protein binding (equilibrium dialysis). It counts as in vitro ADME. As to conditions: dialysis 18 hours. A general note: In equilibrium dialysis only unbound substance equilibrates across the membrane.
The next series in a line: physchem. Conditions: 1-octanol/aqueous buffer, pH 7.4.
The mark [4] stands for this setting: aqueous phosphate buffer, 25 °C, pH 7.4, aqueous buffer, thermodynamic from solid.

Chain of Estrogen Receptor (ERα) in MCF-7 cells (P03372 whole entry): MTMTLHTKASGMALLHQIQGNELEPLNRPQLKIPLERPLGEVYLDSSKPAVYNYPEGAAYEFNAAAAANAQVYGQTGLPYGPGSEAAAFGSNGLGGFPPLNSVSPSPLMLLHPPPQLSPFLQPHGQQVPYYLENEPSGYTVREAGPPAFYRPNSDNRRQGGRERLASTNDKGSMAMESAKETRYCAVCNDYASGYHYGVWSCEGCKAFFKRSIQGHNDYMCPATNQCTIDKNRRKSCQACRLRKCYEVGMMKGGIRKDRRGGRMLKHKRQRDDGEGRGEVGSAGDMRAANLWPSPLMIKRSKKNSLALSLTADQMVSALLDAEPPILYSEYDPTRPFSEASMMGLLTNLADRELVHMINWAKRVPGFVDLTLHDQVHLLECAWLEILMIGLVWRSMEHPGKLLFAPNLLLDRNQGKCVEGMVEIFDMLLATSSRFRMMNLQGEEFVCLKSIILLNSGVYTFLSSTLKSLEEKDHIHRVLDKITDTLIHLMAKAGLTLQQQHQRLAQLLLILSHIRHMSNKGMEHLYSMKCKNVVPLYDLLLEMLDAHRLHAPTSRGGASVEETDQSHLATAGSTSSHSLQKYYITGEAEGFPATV

As a reminder, the IC50 is the concentration needed to halve the response being measured. As a reminder, the solubility is the dissolved amount per volume that the medium holds. A lower solubility goes with a poorly soluble substance. As a reminder, the logD is lipophilicity at a set pH, counting ionised and neutral species. Read a high logD as higher lipophilicity. Consider `C[C@@H]1Cc2c([nH]c3ccccc23)[C@@H](c2ccc(OC[C@H](C)NCCCF)cc2)N1CC1(F)COC1` [Example 27, 3-fluoro-N-((S)-1-(4-((1R,3R)-2-((3-fluorooxetan-3-yl)methyl)-3-methyl-2,3,4,9-tetrahydro-1H-pyrido[3,4-b]indol-1-yl)phenoxy)propan-2-yl)propan-1-amine], for which, in series [1], the midpoint of inhibition, the IC50, lay at 1.5 nM and the “% downregulation” value was “(79%)”. This compound registered a solubility at 24 h in series [2] (setting [4]) of 281 µM (≈ 136 µg/mL). Moreover, the “Human plasma protein binding (% free)” value in series [3] came to 5.2 % free. For the same compound, the pH-dependent lipophilicity (logD) in “physchem” came out at 3.
On to `COc1nc(OCCNCCCF)ccc1[C@@H]1c2[nH]c3ccccc3c2C[C@@H](C)N1CC(C)(F)F` [Example 77, N-(2-((5-((1R,3R)-2-(2,2-difluoropropyl)-3-methyl-2,3,4,9-tetrahydro-1H-pyrido[3,4-b]indol-1-yl)-6-methoxypyridin-2-yl)oxy)ethyl)-3-fluoropropan-1-amine], for which, in series [1], the IC50 came out at 0.71 nM and the “% downregulation” value was “(85%)”. The compound also had a solubility at 24 h in series [2] (setting [4]) of 108 µM (≈ 53 µg/mL). In addition, the “Human plasma protein binding (% free)” value in series [3] came to 0.19 % free. Besides, the logD in “physchem” was over 3.6.
The matching figures for `C[C@@H]1Cc2c([nH]c3ccccc23)[C@@H](c2ccc(OCCNCCCF)cn2)N1CC1(F)CC1` [Example 31, 3-fluoro-N-(2-((6-((1S,3R)-2-((1-fluorocyclopropyl)methyl)-3-methyl-2,3,4,9-tetrahydro-1H-pyrido[3,4-b]indol-1-yl)pyridin-3-yl)oxy)ethyl)propan-1-amine]: 22 nM, “(89%)”, 554 µM (≈ 252 µg/mL), 5.3 % free and 2.7.
For `COc1cc(NCCNCCCF)ccc1[C@@H]1c2[nH]c3ccccc3c2C[C@@H](C)N1CC1(F)CC1` [Example 60, N1-(4-((1R,3R)-2-((1-fluorocyclopropyl)methyl)-3-methyl-2,3,4,9-tetrahydro-1H-pyrido[3,4-b]indol-1-yl)-3-methoxyphenyl)-N2-(3-fluoropropyl)ethane-1,2-diamine], in series [1], half-maximal inhibition (IC50) required 1.8 nM. The compound further returned a solubility at 24 h in series [2] (setting [4]) of 760 µM (≈ 367 µg/mL). Besides, in series [3], the “Human plasma protein binding (% free)” value worked out at 7.8 % free. The logD in “physchem” stood at 2.9.
Take `C[C@H](COc1ccc([C@@H]2c3[nH]c4ccccc4c3C[C@@H](C)N2CC2(F)COC2)cc1)NCCCF` [Example 28, 3-fluoro-N-((R)-1-(4-((1R,3R)-2-((3-fluorooxetan-3-yl)methyl)-3-methyl-2,3,4,9-tetrahydro-1H-pyrido[3,4-b]indol-1-yl)phenoxy)propan-2-yl)propan-1-amine]: in series [1], the IC50 was determined as 11 nM and the “% downregulation” value is reported as “(48%)”. Also, in series [2] (setting [4]), the solubility at 24 h amounted to 354 µM (≈ 171 µg/mL). The “Human plasma protein binding (% free)” value in series [3] is given as 2.7 % free. The same compound returned a logD in “physchem” of 2.9.
`C[C@@H]1Cc2c([nH]c3ccccc23)[C@@H](c2c(F)cc(OCC(CO)NCCCF)cc2F)N1CC(C)(C)F` (stereo partly drawn) [Example 20, 3-(3,5-difluoro-4-((1R,3R)-2-(2-fluoro-2-methylpropyl)-3-methyl-2,3,4,9-tetrahydro-1H-pyrido[3,4-b]indol-1-yl)phenoxy)-2-((3-fluoropropyl)amino)propan-1-ol] had an IC50 in series [1] of 0.26 nM. For the same compound, the solubility at 24 h in series [2] (setting [4]) was 18 µM (≈ 9.39 µg/mL). In series [3], the “Human plasma protein binding (% free)” value was under 0.30 % free. In addition, in the series “physchem”, the logD was over 3.9.
The matching figures for `C[C@@H]1Cc2c([nH]c3ccccc23)[C@@H](c2cnc(OCCNCCCF)cn2)N1CC(F)(F)CO` [Example 69, 2,2-difluoro-3-((1S,3R)-1-(5-(2-((3-fluoropropyl)amino)ethoxy)pyrazin-2-yl)-3-methyl-1,3,4,9-tetrahydro-2H-pyrido[3,4-b]indol-2-yl)propan-1-ol]: 0.54 nM, 820 µM (≈ 392 µg/mL), 15 % free and 2.
In the same order, the values of `C[C@@H]1Cc2c([nH]c3ccccc23)[C@@H](c2cnc(NCCNCCCF)cn2)N1CC(F)F` [Example 71, N1-(5-((1S,3R)-2-(2,2-difluoroethyl)-3-methyl-2,3,4,9-tetrahydro-1H-pyrido[3,4-b]indol-1-yl)pyrazin-2-yl)-N2-(3-fluoropropyl)ethane-1,2-diamine] are 0.83 nM, over 1000 µM, 13 % free and 2.3.
In series [1], `C[C@@H]1Cc2c([nH]c3ccccc23)[C@@H](c2ncc(OCCNCCCF)cn2)N1CC(C)(C)F` [Example 39, 3-fluoro-N-(2-((2-((1S,3R)-2-(2-fluoro-2-methylpropyl)-3-methyl-2,3,4,9-tetrahydro-1H-pyrido[3,4-b]indol-1-yl)pyrimidin-5-yl)oxy)ethyl)propan-1-amine] came in with an IC50 of 230 nM. Also, the solubility at 24 h in series [2] (setting [4]) was determined as 328 µM (≈ 150 µg/mL). The “Human plasma protein binding (% free)” value in series [3] is recorded as 7.2 % free. The log distribution coefficient (logD) in “physchem” worked out at 2.5.
Compound `COc1cc(OCCNCCCF)ccc1[C@@H]1c2[nH]c3ccccc3c2C[C@@H](C)N1CC(F)(F)F` [Example 73, 3-fluoro-N-(2-(3-methoxy-4-((1R,3R)-3-methyl-2-(2,2,2-trifluoroethyl)-2,3,4,9-tetrahydro-1H-pyrido[3,4-b]indol-1-yl)phenoxy)ethyl)propan-1-amine] showed an IC50 in series [1] of 0.094 nM. This compound also returned a solubility at 24 h in series [2] (setting [4]) of 51 µM (≈ 25.2 µg/mL). For the same compound, the “Human plasma protein binding (% free)” value in series [3] worked out at 0.66 % free. This compound gave a logD in “physchem” of over 3.2.
For `CC(CNCCCF)Oc1cc(F)c([C@@H]2c3[nH]c4ccccc4c3C[C@@H](C)N2CC(C)(C)F)c(F)c1` (stereo partly drawn) [Example 19, 2-(3,5-difluoro-4-((1R,3R)-2-(2-fluoro-2-methylpropyl)-3-methyl-2,3,4,9-tetrahydro-1H-pyrido[3,4-b]indol-1-yl)phenoxy)-N-(3-fluoropropyl)propan-1-amine], in series [1], the midpoint of inhibition, the IC50, lay at 0.41 nM and the “% downregulation” value is “(68%)”. This compound also registered a solubility at 24 h in series [2] (setting [4]) of 11 µM (≈ 5.56 µg/mL). Further, the “Human plasma protein binding (% free)” value in series [3] is recorded as 0.56 % free. The compound further displayed a logD in “physchem” of over 4.4.
Compound `Cc1cc(OCCNCCCF)ncc1[C@@H]1c2[nH]c3ccccc3c2C[C@@H](C)N1CC(F)F` [Example 63, N-(2-((5-((1R,3R)-2-(2,2-difluoroethyl)-3-methyl-2,3,4,9-tetrahydro-1H-pyrido[3,4-b]indol-1-yl)-4-methylpyridin-2-yl)oxy)ethyl)-3-fluoropropan-1-amine] gave an IC50 in series [1] of 1.8 nM. The compound further yielded a solubility at 24 h in series [2] (setting [4]) of 268 µM (≈ 123 µg/mL). In addition, in series [3], the “Human plasma protein binding (% free)” value turned out to be 1.4 % free. This compound registered a log distribution coefficient (logD) in the series “physchem” of over 3.6.
In the same order, the values of `C[C@@H]1Cc2c([nH]c3ccccc23)[C@@H](c2cnc(OCCNCCCF)cn2)N1CC(F)F` [Example 70, N-(2-((5-((1S,3R)-2-(2,2-difluoroethyl)-3-methyl-2,3,4,9-tetrahydro-1H-pyrido[3,4-b]indol-1-yl)pyrazin-2-yl)oxy)ethyl)-3-fluoropropan-1-amine] are 0.88 nM, 607 µM (≈ 272 µg/mL), 11 % free and 2.4.
`C[C@@H]1Cc2c([nH]c3ccccc23)[C@@H](c2ccc(OCCNCCCF)cn2)N1CC1(F)COC1` [Example 32, 3-fluoro-N-(2-((6-((1S,3R)-2-((3-fluorooxetan-3-yl)methyl)-3-methyl-2,3,4,9-tetrahydro-1H-pyrido[3,4-b]indol-1-yl)pyridin-3-yl)oxy)ethyl)propan-1-amine]: the concentration for half-maximal inhibition (IC50) in series [1] was 41 nM. For the same compound, in series [2] (setting [4]), the solubility at 24 h worked out at 980 µM (≈ 461 µg/mL). Also, the “Human plasma protein binding (% free)” value in series [3] is 16 % free. This compound also yielded a logD in the series “physchem” of 2.1.
The compound `C[C@@H]1Cc2c([nH]c3ccccc23)[C@@H](c2ccc(OCCNCCCF)cc2)N1CC(F)CF` (single isomer, unassigned) [Example 25] showed an IC50 in series [1] of 0.36 nM. Moreover, the solubility at 24 h in series [2] (25° C.) amounted to 135 µM (≈ 62 µg/mL). In addition, the “Human plasma protein binding (% free)” value in series [3] is recorded as 1.6 % free. In addition, in “physchem”, the logD worked out at 3.
Consider `C[C@@H]1Cc2c([nH]c3ccccc23)[C@@H](c2c(F)cc(OCCNCCCF)cc2F)N1CC(C)(F)CO` (single isomer, unassigned) [Example 17], for which, in series [1], the IC50 turned out to be 0.086 nM and the “% downregulation” value was “(85%)”. The same compound came in with a solubility at 24 h in series [2] (setting [4]) of 629 µM (≈ 319 µg/mL). Also, the “Human plasma protein binding (% free)” value in series [3] is given as 3.9 % free. The compound further showed a logD in “physchem” of 2.6.
Turning to `COc1cc(OCCNCCCF)ccc1[C@@H]1c2[nH]c3ccccc3c2C[C@@H](C)N1CC(C)(F)F` [Example 74, N-(2-(4-((1R,3R)-2-(2,2-difluoropropyl)-3-methyl-2,3,4,9-tetrahydro-1H-pyrido[3,4-b]indol-1-yl)-3-methoxyphenoxy)ethyl)-3-fluoropropan-1-amine], in series [1], half-maximal inhibition (IC50) was put at 0.14 nM. This compound also showed a solubility at 24 h in series [2] (setting [4]) of 30 µM (≈ 14.7 µg/mL). Also, in series [3], the “Human plasma protein binding (% free)” value is listed as 0.33 % free. The same compound had a logD in “physchem” of 3.9.
`COc1cc(NCCNCCCF)ccc1[C@@H]1c2[nH]c3ccccc3c2C[C@@H](C)N1CC(F)(F)CO` [Example 59, 2,2-difluoro-3-((1R,3R)-1-(4-((2-((3-fluoropropyl)amino)ethyl)amino)-2-methoxyphenyl)-3-methyl-1,3,4,9-tetrahydro-2H-pyrido[3,4-b]indol-2-yl)propan-1-ol]: in series [1], half-maximal inhibition (IC50) required 0.25 nM. The solubility at 24 h in series [2] (setting [4]) was 853 µM (≈ 430 µg/mL). The “Human plasma protein binding (% free)” value in series [3] is 2.8 % free. The logD in “physchem” turned out to be 2.9.
Take `C[C@@H]1Cc2c([nH]c3ccccc23)[C@@H](c2c(F)cc(OCCNCCCF)cc2F)N1C[C@H](F)CF` (single isomer, unassigned) [Example 15]: in series [2] (setting [4]), the solubility at 24 h came to 83 µM (≈ 41.1 µg/mL). The “Human plasma protein binding (% free)” value in series [3] was found to be 1.5 % free. Also, the logD in “physchem” came to 3.4.
